Reference: PubChem BioAssay AID2740 (NMMLSC, 2010)
Where “and” joins values, the source holds several entries; their conditions need not be identical. Equal entries are not always repeated. Calls of active or inactive are those of the source.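 Rule for the calls: active = compounds whose fitted half-maximal concentration for changing the GFP signal is at or below a set limit; inactive = the rest.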

Assay: TOR pathway RPL19A-GFP modulators, concentration series – cell-based, S. cerevisiae, flow cytometry, MLPCN hits, dose response (AID 2740);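 note: background is signal of the same compound in parental non-GFP s288c yeast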
Details: S. cerevisiae RPL19A-GFP strain, flow cytometry fluorescence, 3 h; at 33 µM (top of the series)

| SMILES | GFP fluorescence, lower = active (kMESF (background-subtracted)) |
| --- | --- |
| O=C(O)c1cc[c]([Hg][Cl])cc1 | 15.7 (inactive) |
| COc1ccc(NC2=C(Cl)C(=O)N(CCc3ccccc3)C2=O)c(OC)c1 | 39.1 (inactive) |
| Cc1ccc(NC(=O)c2ccc(Cl)c(N3C(=O)C=CC3=O)c2)cc1 | 22.4 (inactive) |
| CC(=O)n1cc(C(C[N+](=O)[O-])SCCN)c2ccccc21 (stereo unspecified) | 21.4 (inactive) |
| O=C(CCS(=O)(=O)c1ccccc1)Nc1nc(-c2ccccn2)cs1 | 37.8 (inactive) |
| CC(C)[C@]1(c2ccccc2)ON(c2ccccc2C(F)(F)F)C1=O | 36 (inactive) |
| CCCCOc1ccc(C(=O)NNC(=S)NC(=O)CC)cc1 | 43 (inactive) |
| O=C1c2cccc3c([N+](=O)[O-])ccc(c23)C(=O)N1c1ccccn1 | 55.8 (inactive) |
| CC1=C/C(=N\OS(=O)(=O)c2ccccc2)C(C)=CC1=O | 17.1 (inactive) |
| Oc1c(CN2CCCCC2)cc(Br)c2cccnc12 | 43.4 (inactive) |
| CCCOc1ccc(C(=O)NNC(=S)NC(=O)c2ccco2)cc1 | 51 (inactive) |
| CCCCCCCCC/C(=N\O)c1ccccn1 | 38.8 (inactive) |
| C/C(=N\Nc1ncnc2sc(C)c(C)c12)c1ccccn1 | -2.55 (inactive) |
| COc1ccc(C(=O)NC(=S)NNC(=O)c2cnccn2)cc1OC | 38.6 (inactive) |
| COc1ccccc1[C@]1(C)ON(c2ccccc2C(F)(F)F)C1=O | 30.8 (inactive) |
| CN(C)c1ccc(N=Cc2nc(-c3ccccc3)oc2OC(=O)c2ccccc2)cc1 | 44.1 (inactive) |
| CSC1=NS(=O)(=O)c2c(C)nn(C)c2S1 | 35.2 (inactive) |
| COc1ccc(N=Cc2nc(-c3ccccc3)oc2OC(=O)c2ccccc2)cc1 | 46.2 (inactive) |
| Cc1ccc(/C=C/C(=O)c2ccc([N+](=O)[O-])o2)cc1 | 46.1 (inactive) |
| O=c1oc2cc(Oc3c([N+](=O)[O-])cc(C(F)(F)F)cc3[N+](=O)[O-])ccc2c2c1CCCC2 | 36.1 (inactive) |
| COC(=O)/C(=C/c1c[nH]c2ccccc12)[N+](=O)[O-] | 42.8 (inactive) |

| SMILES | GFP fluorescence, lower = active (kMESF (background-subtracted)) |
| --- | --- |
| CCN(CC)c1ccc(/C=C2/C(=O)c3ccc(C(=O)O)cc3C2=O)cc1 | 38.3 (inactive) |
| CCn1c(=O)c(C(C)=O)c(O)c2ccccc21 | 47 (inactive) |
| COc1cc(/C=C2/C(=O)ON=C2c2ccccc2)ccc1O | 35.6 (inactive) |
| O=[N+]([O-])c1ccc(O)c2ncccc12 | 25.5 (inactive) and 19.3 (inactive) |
| CC(C)[C@@]1(c2ccccc2)ON(c2ccccc2C(F)(F)F)C1=O | 40.1 (inactive) |
| COc1ccc(-c2cc(C(F)(F)F)nc(S(C)(=O)=O)n2)cc1 | 44.7 (inactive) |
| Cc1cccc(Nc2nc(-c3ccccn3)cs2)n1 | 29.8 (inactive) |
| N#Cc1c2ccc([N+](=O)[O-])cc2[n+]([O-])n1-c1ccccc1 | 51.8 (inactive) |
| Oc1c(I)cc(Cl)c2cccnc12 | 25.8 (inactive) |
| Cc1ccc(C(=O)NNC(=S)NC(=O)c2ccco2)cc1 | 49.1 (inactive) |
| COc1cc(N=c2ssnc2Cl)cc(OC)c1 | 31.6 (inactive) |
| CC[C@]1(c2ccccc2OC)ON(c2ccccc2C(F)(F)F)C1=O | 33.7 (inactive) |
| O=C(Oc1oc(-c2ccco2)nc1C=Nc1ccccc1)c1ccoc1 | 46.5 (inactive) |
| C/C(=N/NC(=O)c1ccc(C(C)(C)C)cc1)c1ccccn1 | 45.9 (inactive) |
| Cc1c(NC2=C(Cl)C(=O)N(c3ccccc3)C2=O)c(=O)n(-c2ccccc2)n1C | 43.6 (inactive) |
| CN(O)/C=c1/ccc2c(n1)C(=O)C=CC=2 | 39.2 (inactive) |
| CS(=O)(=O)N1N=C(c2ccccc2)CC1c1ccc2c(c1)OCO2 (stereo unspecified) | 36.9 (inactive) |
| Cc1ccccc1OCCOC(=O)c1ccc(S(=O)(=O)N2CCCC2)cc1 | 43.3 (inactive) |
| O=C(Oc1c(Cl)cc(Cl)c2cccnc12)c1ccco1 | 34.9 (inactive) |
| Cc1cc(C2CCCCC2)n(O)c(=O)c1 | 42.8 (inactive) |
